Consider one compound from patent publication US9309224B2 (Deciphera Pharmaceuticals, LLC, priority 2013, dated 2016).

The subject of experiment [1] is c-FMS. The experiment can be described thus: cFOS mRNA production in a c-FMS mouse spleen pharmacodynamic model. Format: in vivo. The conditions noted are these: out to 8 h post 30 mg/kg single oral dose, read-out: inhibition of cFOS mRNA levels. Here is the method: Analysis of cFOS mRNA Production in a c-FMS Mouse Spleen Pharmacodynamic Model To examine the in vivo modulation of FMS activity by compounds of formula I, spleen samples from female DBA/1 mice were collected and analyzed for M-CSF stimulated production of cFOS mRNA. Briefly, six to seven week old female Taconic DBA/1BO J Bom Tac mice were treated with a single oral dose (by gavage) of either vehicle or compound. Plasma and spleen samples are collected from four mice at each timepoint 2, 4, 6, 8, 12, 18, and 24 hours after dosing. Fifteen minutes prior to euthanasia, all mice were injected IV with 1 μg (100 μL fixed volume) of M-CSF. M-CSF, Recombinant Mouse Macrophage Colony Stimulating Factor (36.4 kDa homodimer, ≧98% purity) was obtained from Gibco. All procedures carried out in this experiment were conducted in compliance with all the laws, regulations and guidelines of the National Institutes of Health (NIH). cFOS mRNA levels in spleen extracts were determined using a quantitative reverse transcriptase PCR kit from Life Technologies. Plasma levels of FMS inhibitors were determined by mass spectrometer analysis. The degree of FMS inhibition was correlative to the amount of decrease observed in cFOS mRNA levels in the spleen samples of treated animals compared to vehicle.

The target of experiment [2] is T1, unphosphorylated PDGFRβ kinase (uPDGFRβ, Seq. ID No. 3) (Homo sapiens, UniProt P09619).
T1 construct: purchased DeCode
T1 sequence (P09619 557-1105): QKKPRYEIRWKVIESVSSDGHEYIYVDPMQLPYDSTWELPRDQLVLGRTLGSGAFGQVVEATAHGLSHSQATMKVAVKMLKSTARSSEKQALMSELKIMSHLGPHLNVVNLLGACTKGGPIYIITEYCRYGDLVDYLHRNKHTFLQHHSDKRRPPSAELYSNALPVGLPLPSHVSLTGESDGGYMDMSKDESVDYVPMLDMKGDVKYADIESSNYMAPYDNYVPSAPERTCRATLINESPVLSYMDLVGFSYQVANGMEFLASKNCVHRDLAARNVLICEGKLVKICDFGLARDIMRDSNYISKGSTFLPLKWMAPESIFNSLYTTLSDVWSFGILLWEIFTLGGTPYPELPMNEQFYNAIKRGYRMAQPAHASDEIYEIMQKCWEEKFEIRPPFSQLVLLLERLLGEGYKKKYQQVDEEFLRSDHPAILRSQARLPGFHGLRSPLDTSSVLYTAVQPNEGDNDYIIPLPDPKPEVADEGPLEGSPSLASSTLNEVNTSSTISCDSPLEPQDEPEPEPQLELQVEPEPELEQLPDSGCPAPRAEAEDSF
The experiment can be described thus: Unphosphorylated PDGFRβ kinase assay (pyruvate kinase/lactate dehydrogenase coupled). Format: biochemical. As to conditions: ATP 500 μM. The text has this:
Unphosyhorylated PDGFRβ (uPDGFRβkinase (Seq. ID No. 3) assay

In experiment [3] the target is T2, unphosphorylated c-KIT kinase (uKIT, Seq. ID no. 2) (Homo sapiens, UniProt P10721).
T2 construct: uKit with N-terminal GST fusion used for
T2 sequence (P10721 with tags, fused parts or gaps): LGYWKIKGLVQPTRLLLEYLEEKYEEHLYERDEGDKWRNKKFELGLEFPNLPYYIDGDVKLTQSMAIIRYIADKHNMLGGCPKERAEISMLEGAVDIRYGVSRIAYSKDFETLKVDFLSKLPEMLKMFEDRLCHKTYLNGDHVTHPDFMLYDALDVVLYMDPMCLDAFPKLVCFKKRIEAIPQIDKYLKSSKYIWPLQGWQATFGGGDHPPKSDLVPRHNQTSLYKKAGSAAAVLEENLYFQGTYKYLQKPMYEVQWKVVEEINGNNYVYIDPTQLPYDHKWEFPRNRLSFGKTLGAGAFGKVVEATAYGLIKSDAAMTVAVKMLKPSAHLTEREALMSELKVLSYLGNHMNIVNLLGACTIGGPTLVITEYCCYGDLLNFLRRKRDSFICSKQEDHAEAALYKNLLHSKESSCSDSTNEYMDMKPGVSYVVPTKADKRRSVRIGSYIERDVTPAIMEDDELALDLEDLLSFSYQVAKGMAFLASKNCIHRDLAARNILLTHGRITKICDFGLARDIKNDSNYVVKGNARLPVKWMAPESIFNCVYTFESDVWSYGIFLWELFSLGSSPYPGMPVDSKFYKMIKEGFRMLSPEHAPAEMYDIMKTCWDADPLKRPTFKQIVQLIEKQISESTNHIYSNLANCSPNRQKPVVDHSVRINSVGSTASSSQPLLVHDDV
The experiment can be described thus: uKit kinase assay (pyruvate kinase/lactate dehydrogenase coupled). Format: biochemical. The conditions noted are these: ATP 2000 μM.
Protocol: In this assay, the oxidation of NADH (thus the decrease at A340 nm) was continuously monitored spectrophometrically. […] The inhibition reaction was started by mixing serial diluted test compound with the above reaction mixture. The absorption at 340 nm was monitored continuously for 4 hours at 30° C. on Synergy 2 plate reader (BioTech).

For experiment [4], the system named is osteoclast precursors. The experiment can be described thus: Osteoclast tartrate-resistant acid phosphatase assay. As to conditions: Osteoclast; 7-14 days, RANKL and M-CSF. Format: cell-based.
Experiment [5] deals with M-NFS-60 cells. The experiment can be described thus: M-NFS-60 cell proliferation assay. Format: cell-based. As to conditions: 67 h incubation, resazurin.
Protocol: M-NFS-60 Cell Proliferation Assay A serial dilution of test compound was dispensed into a 384-well black clear bottom plate (Corning, Corning, N.Y.). Two thousand five hundred cells were added per well in 50 μL complete growth medium. […] IC50 values were calculated from a series of percent inhibition values determined at a range of inhibitor concentrations using software routines as implemented in the GraphPad Prism software package.
In experiment [6] the test system is U251-luc human glioma carcinoma. The experiment can be described thus: U251 intra-cerebro-ventricular implant in mice with fractionated head radiation. As to conditions: 30 mg/kg twice daily, 10 days post irradiation, compared to vehicle treated control. Format: in vivo, mouse. Here is the method: U251 Intra-Cerebro-Ventricular Implant in Mice To evaluate in vivo anti-cancer activity compounds of formula I in combination with fractionated, localized head radiation, an orthotopic U251-luc (Luc) human glioma carcinoma model in female outbred nu/nu mice was employed. Briefly, U251 cells were obtained from the ATCC and altered to be luciferase expressing. They were grown in RPMI 1640 Media supplemented with 10% FBS and 1% PSG. The growth environment was maintained in an incubator with a 5% CO2 atmosphere at 37° C. Female Harlan Nude mice (Hsd:AthymicNude-Fox1nu) 8-9 weeks old were used in this study. Test animals were implanted intracranially with U251-luc (LucmCherry) cells. Briefly, animals were injected subcutaneously with 5 mg/kg carprofen and anesthetized using 2% isoflurane in air. The animals were then secured in a stereotaxic frame (ASIinstruments, Inc.) and a hole drilled 2 mm right lateral, 1 mm anterior to the coronal suture. The cell suspension (stored on wet ice) was mixed thoroughly and drawn up into a 50 μL syringe. The syringe needle was centered over the burr hole and lowered 3 mm into the brain and retracted 1 mm to form a “reservoir” for the deposition of the cell suspension. […] Images were analyzed using Living Image (Xenogen, Alameda, Calif.) software. The BLI signal in the brain was calculated with a fixed area ROI to estimate the tumor burden. […]

As usually defined, the IC50 is the concentration that gives 50% inhibition. With `CN1CCN(C(=O)Nc2cc(Oc3ccc(NC(=O)NC(=O)C(C)(C)C)nc3)ccn2)CC1` [Example 45, 4-methyl-N-(4-((6-(3-pivaloylureido)pyridin-3-yl)oxy)pyridin-2-yl)piperazine-1-carboxamide], the inhibition in vivo at 30 mg/kg in experiment [1] was at least 50%. In addition, the concentration for half-maximal inhibition (IC50) in experiment [2] was 100 to 1000 nM; in experiment [3] it was 100 to 1000 nM; in experiment [4], below 10 nM; in experiment [5], below 10 nM. In experiment [6], the “reduction in tumor re-growth” value amounted to 80%.
